Entries after “also recorded” stand apart in the source; their conditions may differ.
Tests used:
[1] = system: CFTR mRNA; test: Quantitative PCR of CFTR mRNA in cerebral arteries of naïve mice treated in vivo; set-up: species or system mouse; details: 3 mg/kg daily for 2 days, vs vehicle controls
Excerpt: Resistance artery RNA was isolated with Norgen Biotek (Thorold, Canada) “Total RNA Purification Micro” spin columns, using the proteinase K digestion and DNA removal procedures, as directed by the manufacturer's instructions. The eluted RNA was quantified with an Agilent Technologies RNA 6000 Pico Kit and Bioanalyzer; the analysis confirmed that high-quality RNA was retrieved from the artery tissue samples (RNA Integrity [RIN]: Cerebral=8.4±0.1, n=5; Cremaster=8.2±0.4, n=6). Isolation of RNA from Baby Hamster Kidney fibroblast cells followed the same procedure, with the omission of the proteinase K digestion step. […]
Quantitative FOR was performed using an Applied Biosystems ViiA™ 7 Real Time FCR system and Power SYBR® Green FCR master mix (both distributed by lnvitrogen Life Technologies). […] Gene targets were assessed in triplicate, using 1 ng of cDNA generated from the reverse transcription; negative controls received water. […] Transcript expression levels in mouse tissues were calculated from the DCt values relative to the standard housekeeping gene hydroxymethylbilane synthase (HMBS). To confirm that HMBS was reliable for normalization, transcript expression levels were also calculated from the DCt values relative to glucose-6-phosphate dehydrogenase (G6PD), which returned similar results. […]

[2] = target: T1, CFTR (Mus musculus, UniProt P26361); test: Western blot of CFTR protein in cerebral arteries of naïve mice treated in vivo; set-up: Cerebral artery lysates were prepared by grinding artery samples in lysis buffer; from tissue; host or cells: cerebral arteries of male wild-type C57BL/6N mice (naïve, heart failure or subarachnoid hemorrhage models); details: 3 mg/kg daily for 2 days, vs vehicle controls
T1 sequence (P26361 whole entry): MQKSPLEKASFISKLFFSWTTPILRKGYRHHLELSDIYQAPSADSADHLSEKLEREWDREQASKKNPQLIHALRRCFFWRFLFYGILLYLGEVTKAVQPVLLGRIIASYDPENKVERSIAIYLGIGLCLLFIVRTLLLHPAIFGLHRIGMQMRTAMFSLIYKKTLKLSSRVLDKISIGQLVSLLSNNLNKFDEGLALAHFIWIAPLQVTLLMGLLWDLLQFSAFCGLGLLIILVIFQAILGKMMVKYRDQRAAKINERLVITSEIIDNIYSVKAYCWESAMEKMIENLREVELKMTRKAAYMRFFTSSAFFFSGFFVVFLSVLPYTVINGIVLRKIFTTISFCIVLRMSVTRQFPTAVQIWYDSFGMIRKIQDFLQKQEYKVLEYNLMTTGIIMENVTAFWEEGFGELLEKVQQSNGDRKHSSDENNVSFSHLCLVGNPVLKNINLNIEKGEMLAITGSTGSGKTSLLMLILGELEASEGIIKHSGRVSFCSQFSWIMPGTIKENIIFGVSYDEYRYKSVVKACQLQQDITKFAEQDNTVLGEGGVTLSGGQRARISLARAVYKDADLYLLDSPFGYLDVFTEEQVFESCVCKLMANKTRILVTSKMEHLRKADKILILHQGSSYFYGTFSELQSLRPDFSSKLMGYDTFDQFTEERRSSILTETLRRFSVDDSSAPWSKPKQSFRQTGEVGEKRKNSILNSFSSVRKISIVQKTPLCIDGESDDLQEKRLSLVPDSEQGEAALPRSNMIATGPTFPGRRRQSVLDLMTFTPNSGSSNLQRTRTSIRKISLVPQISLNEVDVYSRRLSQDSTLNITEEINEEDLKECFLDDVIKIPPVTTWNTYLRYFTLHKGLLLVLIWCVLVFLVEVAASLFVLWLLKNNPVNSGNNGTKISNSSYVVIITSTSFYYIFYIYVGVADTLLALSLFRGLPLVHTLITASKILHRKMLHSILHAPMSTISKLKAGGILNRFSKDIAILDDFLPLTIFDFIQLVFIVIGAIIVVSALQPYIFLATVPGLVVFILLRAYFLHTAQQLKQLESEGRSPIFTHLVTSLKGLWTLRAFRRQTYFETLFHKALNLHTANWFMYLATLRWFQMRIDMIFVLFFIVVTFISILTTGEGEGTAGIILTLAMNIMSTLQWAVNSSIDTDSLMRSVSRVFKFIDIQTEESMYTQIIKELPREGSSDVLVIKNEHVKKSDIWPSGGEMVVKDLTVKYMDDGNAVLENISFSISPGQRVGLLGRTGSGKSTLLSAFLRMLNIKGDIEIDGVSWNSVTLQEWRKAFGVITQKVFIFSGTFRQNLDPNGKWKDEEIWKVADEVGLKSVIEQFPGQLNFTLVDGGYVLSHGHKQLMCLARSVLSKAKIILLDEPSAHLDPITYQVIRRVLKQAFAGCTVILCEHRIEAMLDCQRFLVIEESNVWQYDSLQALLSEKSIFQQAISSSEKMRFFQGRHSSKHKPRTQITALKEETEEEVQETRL
Experimental: (§1) Western blots for CFTR were completed as previously described (12, 18). Cerebral artery lysates were prepared by grinding artery samples in lysis buffer containing 50 mM Tris (pH 7.3), 150 mM NaCl, 2 mM […], 0.1% Triton-X-100, 0.1% […] and protease inhibitors; the same lysis buffer was used to prepare cell culture lysates. Following lysis, the samples were centrifuged (10 minutes at 13,500 g; at 4° C.) to remove insoluble material. Immediately prior to polyacrylamide electrophoresis, additional SDS (to 2% final concentration), glycerol (to 2% final concentration), β-mercaptoethanol (to 2% final concentration) and dithiothreitol (2 mM final concentration) were added. Proteins were separated electrophoretically on 7% acrylamide gels and transferred onto polyvinylidene difluoride (PVDF) membranes. […]
(§2) The primary antibodies were conjugated with either peroxidase-labeled donkey anti-rabbit IgG (GE Healthcare Amersham (Piscataway, USA) cat# NA934) or peroxidase-labeled goat anti-mouse IgG (GE Healthcare Amersham cat# NA931) secondary antibodies. […] Developed films were evaluated densitometrically using “Image J” software (freely available from the NIH); digital images were evaluated with Image Lab software (Bio-Rad). […]

[3] = target: T1, CFTR; test: CFTR protein in cerebral arteries of mice with subarachnoid hemorrhage; type: in vivo; set-up: Cerebral artery lysates were prepared by grinding artery samples in lysis buffer; from tissue; host or cells: cerebral arteries of male wild-type C57BL/6N mice (naïve, heart failure or subarachnoid hemorrhage models); details: 2 days post-induction, 3 mg/kg daily for 2 days
Experimental: as §1, §2

[4] = system: mice with subarachnoid hemorrhage; test: Modified Garcia neurological score in subarachnoid hemorrhage mice; type: in vivo, mouse; details: SAH mice, 2 days post-SAH, maximum score 18, 3 mg/kg daily for 2 days
Experimental: Neurological Function Assessment: Neurological function was assessed utilizing the modified Garcia score, as previously described (6). The neurological assessment consists of 6 domains: spontaneous activity, spontaneous movement of all 4 limbs, forepaw outstretching, climbing, body proprioception and response to vibrissae touch. Two blinded observers conducted the neurological assessment 2 days after SAH. The maximum score is 18, indicative of normal neurological function.

Row | Structure (SMILES) | cerebral artery CFTR mRNA expression [1] | CFTR protein expression in cerebral arteries ([2]; 3 mg/kg) | cerebral artery CFTR protein expression in SAH [3] | Modified Garcia score (neurological function) [4] | CFTR protein expression in cerebral arteries [2]
1 | Cc1ccc(NC(=O)C2(c3ccc4c(c3)OC(F)(F)O4)CC2)nc1-c1cccc(C(=O)O)c1 [lumacaftor] | unaffected; also recorded: does not influence | increases CFTR protein expression; also recorded: higher | restores; also recorded: eliminates this reduction | – | –
2 | O=C(Nc1ncc(C(c2ccccc2Cl)N2CCC(O)C2)s1)C1(c2ccc3c(c2)OCO3)CC1 (stereo not shown) [C18, 1-(benzo[d][1,3]dioxol-5-yl)-N-(5-((2-chlorophenyl)(3-hydroxypyrrolidin-1-yl)methyl)thiazol-2-yl)cyclopropanecarboxamide] | not affected; also recorded: does not influence | – | restores; also recorded: eliminates this reduction | comparable to sham-operated mice; also recorded: restores the neurological score to the sham level | higher
